The record followed here is patent publication US6420572B1, “Synthetic methods for preparation of protected proanthocyanidin(s)” (Mars, Incorporated, priority 1997, dated 2002).

This data set concerns human breast cancer cell lines (MDA MB 231, MDA MB 435, MCF-7). As to the kind of experiment: Cytotoxic activity: cell proliferation (crystal violet staining) of human breast cancer cell lines. The protocol:
All human tumor cell lines were obtained from the American Type Culture Collection. Cells were grown as monolayers in IMEM containing 10% fetal bovine serum without antibiotics. The cells were maintained in a humidified, 5% CO2 atmosphere at 37° C.
After trypsinization, the cells were counted and adjusted to a concentration of 1,000-2,000 cells per 100 mL. Cell proliferation was determined by plating the cells (1,000-2,000 cells/well) in a 96 well microtiter plate. After addition of 100 μL cells per well, the cells were allowed to attach for 24 hours. […] The polyphenols were dissolved in media at a 2 fold concentration and 100 μL of each solution was added in triplicate wells. On consecutive days, the plates were stained with 50 μL crystal violet (2.5 g crystal violet dissolved in 125 mL methanol, 375 mL water), for 15 min. The stain was removed and the plate was gently immersed into cold water to remove excess stain. The washings were repeated two more times, and the plates allowed to dry. The remaining stain was solubilized by adding 100 μL of 0.1 M sodium citrate/50% ethanol to each well. After solubilization, the number of cells were quantitated on an ELISA plate reader at 540 nm (reference filter at 410 nm).
Error bars represent +/− standard deviation of three replicate measurements.

The mark [1] stands for this setting: breast cancer cell lines investigated, four days, various μg/mL concentrations, FIG. 1(a)-(d).

“Also recorded” adds a separate entry of the source. Read-outs that look alike come from different tables or passages of the source.

As to `Oc1cc(O)c2c(c1)O[C@H](c1ccc(O)c(O)c1)[C@H](O)C2` [monomer (epicatechin), epicatechin, reference compound], under setting [1], the “cytotoxicity (cancer cell line growth at the end of four days as percent growth of the control)” value was “no cytotoxicity”. Regarding `Oc1cc(O)c2c(c1)O[C@H](c1ccc(O)c(O)c1)[C@H](O)[C@H]2c1c(O)cc(O)c2c1O[C@H](c1ccc(O)c(O)c1)[C@H](O)C2` [synthetic epicatechin dimer, EC-(4β→8)-EC], the “cytotoxicity (cancer cell line growth at the end of four days as percent growth of the control)” value was “no cytotoxicity”. With `O=C(OC1Cc2c(O)cc(O)c(C3c4c(O)cc(O)c(C5c6c(O)cc(O)cc6OC(c6ccc(O)c(O)c6)C5OC(=O)c5cc(O)c(O)c(O)c5)c4OC(c4ccc(O)c(O)c4)C3OC(=O)c3cc(O)c(O)c(O)c3)c2OC1c1ccc(O)c(O)c1)c1cc(O)c(O)c(O)c1` (stereo not drawn) [synthetic epicatechin trimer trisgallate, [EC-3-O-galloyl-(4β→8)]2-EC-3-O-gallate], under setting [1], the “cytotoxicity (cancer cell line growth at the end of four days as percent growth of the control)” value was “cytotoxic effect equivalent to the pentamer and/or epigallocatechin gallate”. Moreover, the “antineoplastic activity against several human breast cancer cell lines (comparison in words)” value (in vitro assessment of Example 25) was “activity equivalent to the pentamer; also recorded: greater antineoplastic activity when compared to the underivatized dimer and trimer”.
